Measured values as given in patent US20060134630A1, “Method for screening for an antimicrobial polypeptide” (Novozymes A/S, priority 2002, published 2006).

Tests used:
[1] = system: Fusarium longypes; experiment: Growth inhibition of Fusarium longypes by AFP diffused into solid media (filter removed); format: cell-based; design: key: +: whether or not a clearing zone is present in the top-layer; −: whether or not a clearing zone is present in the top-layer; details: Fusarium longypes top-layer, acetate filter removed, 0.1% arabinose, 3 days room temperature
Source text: The method used in this example is similar to the method described in example 14 with the difference that in this example the acetate filter containing the E.coli origami cells is removed from the arabinose plate before it is overlaid with the fungus Fusarium longypes which is used as an indicator strain.
Additionally, this example is very similar to example 4, with the exception that in the present example AFP is the antimicrobial polypeptide (instead of Plectasin in example 4) and Fusarium longypes is the indicator cells (instead of Bacillus subtilis in example 4). As described in example 14, E. coli origami cells were transformed with pHHA900-AFP and pHHA, respectively and cultured overnight at 37 degrees C on LB-agar plates containing tetracycline (tet), kanamycin (kan) and ampicillin (amp) to select for viable E.coli origami cells comprising said constructs. Two viable E.coli origami colonies containing each of the constructs were selected and used to inoculate a LB-agar plate with tet, kan and amp before culturing said plate for 3 days at 37 degrees C. A cellulose acetate filter was placed on top of the plate and the colonies were striped off with the filter. The filter was then placed on a new LB-agar plate containing 0.1% arabinose with the colonies facing up to induce expression of the AFP. The filter-agar, 0.1% arabinose plate was incubated overnight at 37 degrees C. […]

[2] = system: Fusarium longypes; experiment: Growth inhibition of Fusarium longypes by AFP (filter-agar plate treated with chloroform); format: cell-based; design: key: +: whether or not a clearing zone is present in the top-layer; −: whether or not a clearing zone is present in the top-layer; details: Fusarium longypes top-layer over origami colonies, 0.1% arabinose, 3 days room temperature
Source text: E. coli origami cells were transformed with pHHA900-AFP and pHHA, respectively and cultured overnight at 37 degrees C. on LB-agar plates containing tetracycline (tet), kanamycin (kan) and ampicillin (amp) to select for viable origami cells comprising said constructs. Two viable origami colonies containing each of the constructs were selected and used to inoculate 3 other LB-agar plates with tet, kan and amp before culturing said plates for 3 days at 37 degrees C. A cellulose acetate filter (Schleider & Schull) was placed on top of each of the plates and the colonies were striped off with the filters. The filters were then place on new LB-agar plates containing 0.1% arabinose with the colonies facing up to induce expression of the AFP. The filter-agar, 0.1% arabinose plates were incubated overnight at 37 degrees C. before treating them with chloroform as described in example 1. After this a top-layer of 6 ml agar comprising approximately […] Fusarium longypes were poured on top of the chloroform treated filter-agar plate. The plates with top-layer were then incubated for 3 days at room temperature. The pink color of the Fusarium longypes mycelium facilitated the detection of the clearing zones in the top layer. […]

pHHA900-AFP: antifungal protein derived from Aspergillus giganteus, expressed in the cytoplasm (ATYNGKCYKKDNICKYKAQSGKTAICKCYVKKCPRDGAKCEFDSYKGKCYC; UniProt P17737 44-94, looked up)
Clearing zone +/− [1]: + | Clearing zone +/−, Plate treated with chloroform [2]: +
